Test results from patent US9234242B2, “Methods for treating depression using NCAM peptide mimetics” (THE BOARD OF THE TRUSTEES OF THE LELAND STANFORD JUNIOR …, priority 2005, dated 2016).

Legend:
[1] = system: FGFR2 and FGFR3 exon IIIc:IIIb splice variant ratio; assay: Real time RT-PCR of exon IIIc:IIIb splice variant ratio in frontal cortex, chronic unpredictable stress; format: in vivo, rats; conditions: 5 ng/g i.p. every 48 hours for three weeks
Procedure: Half of the rats (n=12) were administered vehicle (0.1M PBS with 100 μg/mL bovine serum albumin), and the other half (n=12) were administered human recombinant FGF2 dissolved in vehicle in 5 ng/g dosages (Sigma, St. Louis, Mo.) every 48 hours for three weeks. All treatments were injected intra-peritoneally. During the same three week period as the FGF2 treatments, the vehicle group was either handled (n=6) or exposed to CUS (n=6). Likewise, the FGF2 injected group was either handled (n=6) or exposed to CUS (n=6). […]
Gross dissections were performed on the frontal cortex of all brains. […] Using the Bioanalyzer's concentration readings, the samples were normalized to 25 ng/μL of total RNA per subject and stored at −80° C.
cDNA was synthesized using the iScript cDNA Synthesis Kit (Bio-Rad, Hercules, Calif.). […] The double-stranded cDNA solutions were then analyzed for quality and concentration using Invitrogen's Quant-iT PicoGreen dsDNA kit. […] The fluorescently labeled samples were analyzed with a 1420 Victor^2 Multilabel Counter (EG&G Wallac, Wellesley, Mass.) using the basic Fluorescein protocol. […]
Sequences for rat FGFR2 and FGFR3 exons were obtained from NCBI's Entrez Gene database (www.ncbi.nlm.nih.gov) and the Ensembl-Rat gene database (www.ensembl.org). […] FGFR2 and FGFR3 exon sequences were analyzed for secondary structure using the Mfold nucleic acid folding web server. […]

[2] = system: Rodents; assay: Elevated plus maze (EPM) after microinjection; format: in vivo, rats; conditions: microinjection (intracerebroventricular), versus controls
Source text: (§1) In another embodiment, the present invention provides methods for altering the behavioral profiles of rats by injecting the rats with FGF2, an NCAM peptide mimetic, and a peptide inhibitor of FGF receptors. Both FGF2 and the NCAM peptide mimetic have antidepressant-like effects in the forced swim test when injected intracerebroventricularly. […] In one embodiment of the invention, ligands that activate FGF receptors are used for their antidepressant effects in the therapeutic treatment of individuals with MDD.
(§2) This is indicative of less depression-like behavior in FGF2 animals.
(§3) Again, this is an index of less depression-like behavior. This is also in the same direction as the FGF2 data, consistent with the fact that both FGF2 and NCAM interact with the FGF receptor.
(§4) These observations are nevertheless consistent with the conclusions drawn from the microinjection studies above.

[3] = system: rats; assay: Elevated plus-maze (EPM) and light-dark (LD) anxiety test after chronic administration; format: in vivo; conditions: 5 ng/g i.p. every 48 hours for 3 weeks
Procedure: Anxiety disorders have a high comorbidity with other neuropsychiatric disorders including Major Depression (MD). […] Rats were placed into “high anxiety” (LR) or “low anxiety” (HR) groups based on their behavior in a variety of motor and behavioral tests. Both groups of animals were administered either FGF2 (5 ng/g) or vehicle by intraperitoneal injection every 48 hours for 3 weeks. One day after the last FGF2 injection, all animals were tested in the elevated plus-maze (EPM) and light-dark (LD) anxiety test.
The apparatus for the EPM test is constructed of black Plexiglass with […] (70 cm from the floor, 45 cm long, and 12 cm wide). Illumination is provided by a 40-watt desk lamp facing a wall and placed behind one of the closed arms. The scientists put the animal inside the system. Animals that are less anxious spend more time in the open arms whereas animals that are more anxious spend less time in the open arms.
The LD test is conducted in a 30×60×30-cm Plexiglas shuttle box with a translucent cover. Each box is divided into two equal-sized compartments by a wall with a 12 cm-wide open door. One compartment is painted white and brightly illuminated, and the other is painted black with very dim light. The time each rat spends in each compartment is monitored by rows of five photocells located 2.5 cm above the grid floor of each compartment. […]

[4] = system: Sprague-Dawley rats; assay: Morris water maze learning and memory test in adults after early postnatal injection; format: in vivo; conditions: 20 ng/g s.c. the day after birth, tested as adults; vehicle-injected rats 25 seconds
Procedure: (§5) Sprague-Dawley rats were injected with either vehicle or FGF2 (20 ng/g, s.c.) the day after birth and sacrificed after Morris water maze testing as adults. We assessed changes in gene expression using both a candidate approach and a gene discovery approach with laser-capture microdissection of the dentate gyrus followed by microarray analyses.

[5] = system: Rodents; assay: Forced swim test (FST) after microinjection; format: in vivo, rats; conditions: microinjection (intracerebroventricular), versus controls
Source text: as §1, §2, §3, §4

[6] = system: genes associated with neural plasticity; assay: Long-term changes in hippocampal gene expression (histochemical and RNA expression assays); format: in vivo; conditions: adult rats, 20 ng/g s.c. the day after birth
Procedure: as §5

Substance	effect on the magnitude of ratio changes caused by stress [1]	effect on the IIIc:IIIb ratio in the NS or S group ([1]; P>0.1)	time in the closed arms of the EPM [2]	time in the open arms of the EPM [2]	anxiety-reducing effects in innately more anxious (LR) rats ([3]; LR versus HR rats)	anxiety versus animals who receive vehicle ([3]; time in the light compartment (FIG. 9))	time on average to find a hidden platform in Morris Water maze test [4]	immobility in the FST [5]	swimming in the FST [5]	expression of CCK [6]	expression of GAP-43 [6]	expression of NCAM [6]	expression of Rgs4 [6]	expression of SST [6]	expression of Vgf [6]	expression of trkB [6]	time in the center quadrant of the EPM [2]	climbing in the FST [5]
FGF2: FGF receptor ligand; human recombinant FGF2 (Sigma) in Example 6	nor did it significantly affect	did not alter the IIIc:IIIb ratio significantly	significantly more time	less time	clearly more pronounced	less anxious	20 s	less immobility	more swimming	increased	increased	decreased	increased	increased	increased	increased	–	–
FGF system peptide inhibitor: FGF system peptide inhibitor, amino acid sequence=HFKDPKRLY; SEQ ID NO:35 (FGF system peptide inhibitor) [reference compound]	–	–	less time	equal time	–	–	–	more immobility	less swimming	–	–	–	–	–	–	–	significantly more time	significantly less climbing
NCAM: NCAM (FGL peptide), amino acid sequence=EVYVVAENQQGKSKA (SEQ ID NO:34); interacts with the FGF receptor (NCAM (FGL peptide))	–	–	more time (although not significantly more time)	less time	–	–	–	less immobility	–	–	–	–	–	–	–	–	significantly less time	–
